Here are results for 19 molecules from patent US8501732B2, “Aminomethyl quinolone compounds” (Hoffmann-La Roche Inc., priority 2011, dated 2013).

Assay [1] deals with JNK1 (Homo sapiens (Human), UniProt P45983). In words: In Vitro JNK1 Assay (TR-FRET, phosphorylation of GST-c-Jun). Format: biochemical. As to conditions: 0.2 nM active JNK1 kinase, 26.7 nM GST-c-Jun, 2 μM ATP, 30 min at room temperature. A digest of the protocol:
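GST-c-Jun (residues 1-79) phosphorylation by JNK1 in 50 mM HEPES pH 7.0, MgCl2, 1 mM DTT, 0.1 mM Na3VO4, 0.2 mg/mL BSA, 30 min at room temperature. Stopped with EDTA plus anti-phospho-c-Jun antibody and read by TR-FRET 1 hr later. IC50 from percent inhibition over 10 serial dilutions.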
(Time-resolved FRET reads energy transfer from a long-lived donor to a nearby acceptor.)

Assay [2] concerns phospho(Ser63)-c-jun in HK-2 cells. In words: Cell-Based Assay for JNK Inhibitors (in-cell ELISA, phospho(Ser63)-c-jun after TNFα). As to conditions: HK-2 cells (human proximal tubule cells), 60 minutes compound, then 10 ng/mL TNFα for 30 minutes. The procedure:
Cell-Based Assay for JNK Inhibitors
The cell-based assay employed the in-cell ELISA method to determine the ability of compounds to prevent the generation of phospho(Ser63)-c-jun in HK-2 cells (human proximal tubule cells) in response to stimulation with tumor necrosis factor α (TNFα). In brief, for quantification of phospho(Ser63)-c-jun, the cells (in 96-well format) were fixed and permeablized then incubated sequentially with a rabbit anti-phospho-c-jun First Antibody specific for the presence of the phospho-Ser63 epitope and a donkey anti-rabbit IgG Second Antibody linked to horseradish peroxidase (HRP) for colorimetric quantitation of binding. […] Blank wells received no TNFα stimulation or compound. Additional Control wells received TNFα stimulation, but no compound.
Stock cultures of HK-2 cells (ATCC, Manassas, Va.) were grown under a 5% CO2/[…] atmosphere at 37 degrees C. in Keratinocyte-SFM medium (KSFM, Invitrogen, Grand Island, N.Y.) containing 5 μg/L epidermal growth factor and 5 mg/L bovine pituitary extract (both supplied with the medium), additionally supplemented with 10% (v/v) fetal calf serum (FCS; Invitrogen, Grand Island, N.Y.) and 1% (v/v) antibiotic-antimycotic (ABAM: Sigma, St. Louis, Mo.). For assays, cells were seeded in collagen coated 96-well polystyrene plates (BD Biosciences, Franklin Lakes, N.J.) at a density of 40,000 cells/well and cultured for 24 h in the same medium (100 μL/well) followed by a further 16-24 h in 100 μL of similar medium, but without FCS. […] Plates were then allowed to stand at room temperature for 20 minutes before being washed with 200 μL/well of PBS. (Further steps were performed immediately or the plates were stored at 4 degrees C. and the assay completed the next day.) To each well was added 100 μL 1% (v/v) TritonX-100 (Sigma, St. Louis, Mo.) in PBS followed by 20 minutes standing at room temperature, washing with 200 μL/well PBS, the addition of 100 μL/well of Quenching buffer (1% (v/v) hydrogen peroxide (Sigma, St. Louis, Mo.) and 0.1% (w/v) sodium azide (Fisher Scientific, Fair Lawn, N.J.)) in PBS and a further 20 minutes at room temperature. Plates were then washed twice with 200 μL/well of 0.1% (v/v) Tween-20 (Teknova, Hollister, Calif.) in PBS before addition of 200 μL/well of 2% BSA/0.1% Tween-20 in PBS and a further 1 hour at room temperature. […] After a further one hour, rabbit anti-phospho-c-jun-Ser63 is added directly to the solution in the Blank wells resulting in 1:250 dilution of this antibody. Plates were then placed on a slowly rotating platform at 4 degrees C. overnight. Wells were then washed thrice with 200 μL/well PBS/0.1% Tween-20. After addition of the third wash, the plates were placed on a slowly rotating platform for 15 minutes at room temperature. The final PBS/Tween20 wash was then replaced with 100 μL/well of donkey anti-rabbit HRP-labeled Second Antibody (Jackson ImmunoResearch Laboratory, West Grove, Pa.) diluted 1:10,000 in Antibody Dilution Buffer and the plates placed on a slowly rotating platform for 1 hour at room temperature. Wells were then washed four times with 200 μL/well PBS/0.1% Tween-20, including slow rotation for 30 minutes for the third wash and 10 minutes for the final wash. The wells were then washed once with 200 μL PBS without Tween-20. […] Absorbance was determined at a 450 nm wavelength using a spectrophotometer (Molecular Devices SpectraMax 250).
Background: In an ELISA, binding on a coated surface is turned into a signal by an enzyme label.

Each structure is given as a SMILES string.

JNK1, sequence (P45983 whole entry, the tested form may be a part): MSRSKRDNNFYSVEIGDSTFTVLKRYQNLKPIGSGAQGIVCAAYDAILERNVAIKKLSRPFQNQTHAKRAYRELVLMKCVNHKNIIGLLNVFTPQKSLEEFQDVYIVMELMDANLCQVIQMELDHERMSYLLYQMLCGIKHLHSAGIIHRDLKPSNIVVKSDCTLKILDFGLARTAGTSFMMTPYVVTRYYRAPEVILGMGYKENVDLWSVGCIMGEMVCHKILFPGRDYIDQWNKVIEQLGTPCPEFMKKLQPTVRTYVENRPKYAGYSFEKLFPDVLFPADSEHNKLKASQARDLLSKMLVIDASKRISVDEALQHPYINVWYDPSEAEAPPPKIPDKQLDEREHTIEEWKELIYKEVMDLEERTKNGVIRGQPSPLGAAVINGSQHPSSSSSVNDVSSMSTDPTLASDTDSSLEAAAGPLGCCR

On to `COC(=O)c1c(CNC(=O)c2ccc(N3CCOCC3)nc2)c(=O)c2ccc(F)cc2n1-c1ccccc1` [Example I-169, 7-Fluoro-3-{[(6-morpholin-4-yl-pyridine-3-carbonyl)-amino]-methyl}-4-oxo-1-phenyl-1,4-dihydro-quinoline-2-carboxylic acid methyl ester], for which, in assay [1], the IC50 turned out to be 4 nM. The molecule further registered an EC50 in assay [2] of 2400 nM.
The corresponding values for `COc1cc2ncnc(NCc3cn(-c4ccccc4)c4cc(Cl)ccc4c3=O)c2cc1OC` [Example I-171, 7-Chloro-3-[(6,7-dimethoxy-quinazolin-4-ylamino)-methyl]-1-phenyl-1H-quinolin-4-one] are 23 nM and 88000 nM.
The corresponding values for `O=C(NCc1c(-c2ncco2)n(-c2ccccc2)c2cc(Cl)ccc2c1=O)c1ccc2c(c1)OCO2` [Example I-8, Benzo[1,3]dioxole-5-carboxylic acid (7-chloro-2-oxazol-2-yl-4-oxo-1-phenyl-1,4-dihydro-quinolin-3-ylmethyl)-amide] are 25 nM and 4200 nM.
The like results for `NC(=O)c1ccc(C(=O)NCc2c(-c3ncco3)n(-c3ccccc3)c3cc(Cl)ccc3c2=O)cc1` [Example I-4, N-(7-Chloro-2-oxazol-2-yl-4-oxo-1-phenyl-1,4-dihydro-quinolin-3-ylmethyl)-terephthalamide] were, in that order, 14 nM and 3000 nM.
In assay [1], `O=C(NCc1cn(-c2ccccc2F)c2cc(F)ccc2c1=O)c1ccc(N2CCC(CO)CC2)nc1` [Example I-106, 4-Hydroxymethyl-3,4,5,6-tetrahydro-2H-[1,2′]bipyridinyl-5′-carboxylic acid [7-fluoro-1-(2-fluoro-phenyl)-4-oxo-1,4-dihydro-quinolin-3-ylmethyl]-amide] gave an IC50 of 52 nM. For the same molecule, the EC50 in assay [2] came to 50000 nM.
The corresponding values for `O=C(NCc1c(-c2ncco2)n(-c2ccccc2)c2cc(Cl)ccc2c1=O)c1ccn(Cc2ccccc2)c(=O)c1` [Example I-1, 1-Benzyl-2-oxo-1,2-dihydro-pyridine-4-carboxylic acid (7-chloro-2-oxazol-2-yl-4-oxo-1-phenyl-1,4-dihydro-quinolin-3-ylmethyl)-amide] are 1 nM and 500 nM.
The corresponding values for `O=C(NCc1cn(-c2ccccc2)c2cc(Cl)ccc2c1=O)c1ccn(Cc2ccccc2)c(=O)c1` [Example I-29, 1-Benzyl-2-oxo-1,2-dihydro-pyridine-4-carboxylic acid (7-chloro-4-oxo-1-phenyl-1,4-dihydro-quinolin-3-ylmethyl)-amide] are 13 nM and 5000 nM.
The corresponding values for `COC1CCN(c2ccc(C(=O)NCc3cn(-c4ccccc4)c4cc(Cl)ccc4c3=O)cn2)CC1` [Example I-71, 4-Methoxy-3,4,5,6-tetrahydro-2H-[1,2′]bipyridinyl-5′-carboxylic acid (7-chloro-4-oxo-1-phenyl-1,4-dihydro-quinolin-3-ylmethyl)-amide] are 26 nM and 17000 nM.
In assay [1], `O=C(NCc1cn(-c2ccccc2)c2cc(Cl)ccc2c1=O)c1cnn(-c2ccccc2)c1` [Example I-37, 1-Phenyl-1H-pyrazole-4-carboxylic acid (7-chloro-4-oxo-1-phenyl-1,4-dihydro-quinolin-3-ylmethyl)-amide] showed an IC50 of 72 nM. Moreover, in assay [2], the EC50 worked out at 25000 nM.
The like results for `CN(C)C(=O)c1c(CNC(=O)c2ccc(S(C)(=O)=O)cc2)c(=O)c2ccc(Cl)cc2n1-c1ccccc1` [Example I-19, 7-Chloro-3-[(4-methanesulfonyl-benzoylamino)-methyl]-4-oxo-1-phenyl-1,4-di-hydro-quinoline-2-carboxylic acid dimethylamide] were, in that order, 180 nM and 30000 nM.
The corresponding values for `Cn1cc(C(=O)NCc2cn(-c3ccccc3)c3cc(Cl)ccc3c2=O)cn1` [Example I-30, 1-Methyl-1H-pyrazole-4-carboxylic acid (7-chloro-4-oxo-1-phenyl-1,4-di hydro-quinolin-3-ylmethyl)-amide] are 18 nM and 42000 nM.
The corresponding values for `COC(=O)c1c(CNC(=O)C2CCN(C(C)=O)CC2)c(=O)c2ccc(Cl)cc2n1-c1ccccc1` [Example I-130, 3-{[(1-Acetyl-piperidine-4-carbonyl)-amino]-methyl}-7-chloro-4-oxo-1-phenyl-1,4-dihydro-quinoline-2-carboxylic acid methyl ester] are 220 nM and 100000 nM.
`O=C(NCc1c(-c2ncco2)n(-c2ccccc2)c2ncccc2c1=O)c1ccn(Cc2ccccc2)c(=O)c1` [Example I-9, 1-Benzyl-2-oxo-1,2-dihydro-pyridine-4-carboxylic acid (2-oxazol-2-yl-4-oxo-1-phenyl-1,4-dihydro-[1,8]naphthyridin-3-ylmethyl)-amide] came in with an IC50 in assay [1] of 4 nM. In assay [2], this molecule had a concentration giving a half-maximal response (EC50) of 1200 nM.
The corresponding values for `COC(=O)c1c(CNC(=O)c2cnn(Cc3ccccc3)c2)c(=O)c2ccc(Cl)cc2n1-c1ccccc1` [Example I-119, 3-{[(1-Benzyl-1H-pyrazole-4-carbonyl)-amino]-methyl}-7-chloro-4-oxo-1-phenyl-1,4-dihydro-quinoline-2-carboxylic acid methyl ester] are 13 nM and 6300 nM.
The corresponding values for `CN(C)C(=O)c1c(CNC(=O)c2cnc(N3CCC(CCO)CC3)s2)c(=O)c2ccc(Cl)cc2n1-c1ccccc1` [Example I-27, 7-Chloro-3-[4({2-[4-(2-hydroxy-ethyl)-piperidin-1-yl]-thiazole-5-carbonyl}-amino)-methyl]-4-oxo-1-phenyl-1,4-dihydro-quinoline-2-carboxylic acid dimethylamide] are 82 nM and 8000 nM.
The molecule `COC(=O)c1c(CNC(=O)c2ccc(OC)c(OC)c2)c(=O)c2ccc(Cl)cc2n1-c1ccccc1` [Example I-143, 7-Chloro-3-[(3,4-dimethoxy-benzoylamino)-methyl]-4-oxo-1-phenyl-1,4-dihydro-quinoline-2-carboxylic acid methyl ester] displayed an IC50 in assay [1] of 39 nM. This molecule also showed an EC50 in assay [2] of 1000 nM.
The corresponding values for `O=C(NCc1cn(-c2ccccc2)c2cc(Cl)ccc2c1=O)c1ccc(NCCO)nc1` [Example I-77, N-(7-Chloro-4-oxo-1-phenyl-1,4-dihydro-quinolin-3-ylmethyl)-6-(2-hydroxy-ethylamino)-nicotinamide] are 47 nM and 63000 nM.
The corresponding values for `COC(=O)c1c(CNC(=O)c2ccc(C(N)=O)cc2)c(=O)c2ccc(Cl)cc2n1-c1ccccc1` [Example I-117, 3-[(4-Carbamoyl-benzoylamino)-methyl]-7-chloro-4-oxo-1-phenyl-1,4-dihydro-quinoline-2-carboxylic acid methyl ester] are 10 nM and 3800 nM.
Regarding `CN(C)C(=O)c1c(CNC(=O)c2ccc3ncsc3c2)c(=O)c2ccc(Cl)cc2n1-c1ccccc1` [Example I-16, 3-{[(Benzothiazole-6-carbonyl)-amino]-methyl}-7-chloro-4-oxo-1-phenyl-1,4-dihydro-quinoline-2-carboxylic acid dimethylamide], inhibition in assay [1] was half-maximal at 66 nM (IC50). In assay [2], the midpoint of the response, the EC50, lay at 35000 nM.

As a reminder, the IC50 is the concentration at which inhibition is half-maximal. The low end stands for higher potency, the high end for lower potency. In general, EC50 refers to the concentration at which the effect is half-maximal.
